From PubChem BioAssay AID256 (DTP/NCI, 2004)
Toxic doses and inconclusive results are not listed. Rule for the calls: active = survival T/C of 150% or more; inactive = T/C below 125% in these data.

Tested on: CD2F1 mice, L1210 leukemia ip, survival T/C
Assay: NCI In Vivo Anticancer Drug Screen. Data for tumor model L1210 Leukemia (intraperitoneal) in CD2F1 (CDF1) mice
Conditions: endpoint: mean survival time, higher = longer survival
In short: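 Transplantable tumor in mice; compound-treated vs vehicle-treated groups. Read-out = treated/control ratio of the measured endpoint.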

[1] = dose: 100.0 mg/kg/injection, schedule: Q01DX009 (ip), vehicle: saline with Tween-80
[2] = dose: 200.0 mg/kg/injection, schedule: Q01DX009 (ip), vehicle: saline with Tween-80
[3] = dose: 100.0 mg/kg/injection, schedule: Q01DX001 (ip), vehicle: saline with Tween-80
[4] = dose: 100.0 mg/kg/injection, schedule: Q04DX003 (ip), vehicle: saline with Tween-80
[5] = dose: 200.0 mg/kg/injection, schedule: Q01DX001 (ip), vehicle: saline with Tween-80
[6] = dose: 200.0 mg/kg/injection, schedule: Q04DX003 (ip), vehicle: saline with Tween-80
[7] = dose: 400.0 mg/kg/injection, schedule: Q01DX001 (ip), vehicle: saline with Tween-80
[8] = dose: 400.0 mg/kg/injection, schedule: Q04DX003 (ip), vehicle: saline with Tween-80
[9] = dose: 25.0 mg/kg/injection, schedule: Q01DX009 (ip), vehicle: saline with Tween-80
[10] = dose: 50.0 mg/kg/injection, schedule: Q01DX009 (ip), vehicle: saline with Tween-80
[11] = dose: 100.0 mg/kg/injection, schedule: Q04DX003 (ip), vehicle: saline

Measured: T/C

CCc1c(-c2ccccc2)c(CN2CCCCC2)c2ccccn12
inactive: dose: 75.0 mg/kg/injection, schedule: Q01DX001 (ip), vehicle: saline 103 % of control | dose: 150.0 mg/kg/injection, schedule: Q01DX001 (ip), vehicle: saline 103 % of control | dose: 300.0 mg/kg/injection, schedule: Q01DX001 (ip), vehicle: saline 113 % of control

CCN(C(=O)c1ccccc1Cl)C(c1ccco1)P(=O)(c1ccccc1)c1ccccc1 (configuration not stated)
inactive: [1] 90 % of control | [2] 107 % of control

Clc1ccccc1-c1nc2ccccc2s1
inactive: [3] 91 % of control | [4] 97 % of control | [5] 91 % of control | [6] 96 % of control | [7] 91 % of control | [8] 92 % of control

CC1(C)C(O)C(C)(C)C1O (configuration not stated)
inactive: [9] 93 % of control | [10] 98 % of control | [4] 97 % of control

CCCCCCCC(=O)N1CCCN(C(=O)CCCCCCC)C1
inactive: dose: 25.0 mg/kg/injection, schedule: Q04DX003 (ip), vehicle: saline 94 % of control | dose: 50.0 mg/kg/injection, schedule: Q04DX003 (ip), vehicle: saline 95 % of control | [11] 97 % of control

O=C1C=C(c2ccc(O)cc2)CO1
inactive: [4] 97 % of control | [6] 94 % of control | [8] 97 % of control

COc1cc2ccnc(/C=N\NC(N)=S)c2cc1OC
inactive: [9] 93 % of control | [10] 96 % of control | [1] 96 % of control | [2] 95 % of control

O=C(c1ccccc1)c1ccc2c(c1)-c1ccccc1-2
inactive: [1] 94 % of control | [4] 100 % of control | [2] 94 % of control | [6] 93 % of control | dose: 400.0 mg/kg/injection, schedule: Q01DX009 (ip), vehicle: saline with Tween-80 93 % of control | [8] 95 % of control

O=C1Cc2ccccc2CO1
inactive: [4] 97 % of control | [6] 94 % of control | [8] 105 % of control

CC1(C)C(N2CCOCC2)C(c2ccccc2)S1(=O)=O (configuration not stated)
inactive: [3] 101 % of control | [5] 105 % of control | [7] 105 % of control

C(=N\N=C\c1ccco1)/c1ccco1
inactive: dose: 25.0 mg/kg/injection, schedule: Q01DX001 (ip), vehicle: saline with Tween-80 87 % of control | dose: 50.0 mg/kg/injection, schedule: Q01DX001 (ip), vehicle: saline with Tween-80 97 % of control | [3] 100 % of control | [4] 97 % of control | [6] 101 % of control

CC(C(=O)c1ccccc1)N(C)C (configuration not stated)
inactive: [11] 100 % of control

Nc1ccccc1C(=O)C/C=C/c1ccccc1
inactive: [3] 95 % of control | [5] 91 % of control | [7] 87 % of control

COc1cccc(NC(=S)/C(=C(\[O-])c2ccc([N+](=O)[O-])cc2)[n+]2ccc(C(C)C)cc2)c1
inactive: [1] 95 % of control | [2] 93 % of control
